Reference: patent US9388147B2 (Receptos, Inc., priority 2009, dated 2016)

What follows are molecules tested against S1P1/EDG1 (Homo sapiens, UniProt P21453) (assay: S1P1 CRE-bla CHOK1 reporter assay, inhibition of Forskolin induced cAMP). Settings: agonist activity range, S1P1 CRE-bla CHOK1, 2 μM Forskolin; read-out: S1P1 ACTIVITY.
S1P1/EDG1, sequence (P21453 whole entry): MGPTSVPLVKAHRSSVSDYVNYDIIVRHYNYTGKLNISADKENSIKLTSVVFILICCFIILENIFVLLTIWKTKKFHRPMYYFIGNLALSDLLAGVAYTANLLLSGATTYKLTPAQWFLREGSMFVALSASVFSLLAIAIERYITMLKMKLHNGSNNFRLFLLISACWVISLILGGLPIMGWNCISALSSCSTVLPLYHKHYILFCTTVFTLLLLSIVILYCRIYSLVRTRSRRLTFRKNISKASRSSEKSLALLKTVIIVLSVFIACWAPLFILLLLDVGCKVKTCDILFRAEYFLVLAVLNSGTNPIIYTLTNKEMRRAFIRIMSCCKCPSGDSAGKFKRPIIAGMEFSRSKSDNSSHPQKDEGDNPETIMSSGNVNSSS
Assay type: cell-based
How it was run: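 Read-out is a FRET β-lactamase substrate (2 h, room temperature) after 4 h, 37 °C compound treatment under 2 μM Forskolin in stable S1P1-transfected CRE-bla CHO-K1 cells. Ten-point curves; non-linear regression gives EC50 for inhibition of Forskolin-stimulated cAMP.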
Work on `CC(C)Oc1ccc(-c2nc(-c3cccc4c3CCC4NC(CO)CO)no2)cc1C#N` (racemic) [Compound 17, 5-(3-(1-((1,3-dihydroxypropan-2-yl)amino)-2,3-dihydro-1H-inden-4-yl)-1,2,4-oxadiazol-5-yl)-2-isopropoxybenzonitrile] yielded an EC50 of 0.05 to 0.5 nM.
In the case of `CC(C)Oc1ccc(-c2nc(-c3cccc4c3CCC4NS(=O)(=O)c3ccc(C(=O)O)cc3)no2)cc1C#N` (stereo in doubt) [Compound 80], the EC50 is reported as over 5 nM.
Molecule `CC(C)Oc1ccc(-c2nc(-c3cccc4c3CCC4N3CCC(O)CC3)no2)cc1C#N` (racemic) [Compound 16, 5-(3-(1-(4-hydroxypiperidin-1-yl)-2,3-dihydro-1H-inden-4-yl)-1,2,4-oxadiazol-5-yl)-2-isopropoxybenzonitrile] has an EC50 of 0.05 to 0.5 nM.
`CC(C)Oc1ccc(-c2nc(-c3cccc4c3CCC4N3CCN(CCO)CC3)no2)cc1C#N` (racemic) [Compound 24] gave an EC50 of 0.05 to 0.5 nM.
Molecule `CNC(=O)C1CN([C@H]2CCc3c(-c4noc(-c5ccc(OC(C)C)c(C#N)c5)n4)cccc32)C1` [Compound 206] has an EC50 of 0.05 to 0.5 nM.
`CC(C)Oc1ccc(-c2nc(-c3cccc4c3CC[C@H]4N[C@@H](C)C(=O)O)no2)cc1C#N` [Compound 64] gave an EC50 of under 0.05 nM.
`CC(C)Oc1ccc(-c2nc(-c3cccc4c3CC[C@@H]4N(C)C)no2)cc1C#N` [Compound 210] gave an EC50 of 0.5 to 5 nM.
Molecule `COC(=O)CCS(=O)(=O)N[C@H]1CCc2c(-c3noc(-c4ccc(OC(C)C)c(C#N)c4)n3)cccc21` [Compound 182] has an EC50 of 0.05 to 0.5 nM.
In the case of `CC(C)Oc1ccc(-c2nc(-c3cccc4c3CC[C@@H]4NS(=O)(=O)CCN3CC[C@H](O)C3)no2)cc1C#N` [Compound 174], the EC50 is reported as 0.5 to 5 nM.
`CC(C)Oc1ccc(-c2nc(-c3cccc4c3CC[C@H]4NS(=O)(=O)CC(=O)N3CCC3)no2)cc1C#N` [Compound 201] showed an EC50 of under 0.05 nM.
Work on `N#Cc1cc(OC(F)(F)F)cc(-c2nc(-c3cccc4c3CC[C@H]4N)no2)c1` [Compound 93, (R)-3-(3-(1-amino-2,3-dihydro-1H-inden-4-yl)-1,2,4-oxadiazol-5-yl)-5-(trifluoromethoxy)benzonitrile] yielded an EC50 of over 5 nM.
In the case of `CCOCCS(=O)(=O)N[C@@H]1CCc2c(-c3noc(-c4ccc(OC(C)C)c(C#N)c4)n3)cccc21` [Compound 165], the EC50 is reported as 0.05 to 0.5 nM.
Molecule `CC(C)Oc1ccc(-c2nc(-c3cccc4c3CC[C@H]4O)no2)cc1C#N` [Compound 5, (R)-5-(3-(1-hydroxy-2,3-dihydro-1H-inden-4-yl)-1,2,4-oxadiazol-5-yl)-2-isopropoxybenzonitrile] has an EC50 of under 0.05 nM.
`CC(C)Oc1ccc(-c2nc(-c3cccc4c3CC[C@@H]4NCCCCC(=O)O)no2)cc1C#N` [Compound 148] gave an EC50 of under 0.05 nM.
Molecule `CC(C)Oc1ccc(-c2nc(-c3cccc4c3CC[C@@H]4NS(=O)(=O)CCC3CCC3)no2)cc1C#N` [Compound 168] has an EC50 of 0.05 to 0.5 nM.
With `CC(C)Oc1ccc(-c2nc(-c3cccc4c3CC[C@H]4NCC(=O)N3CCCCC3)no2)cc1C#N` [Compound 130] the EC50 was 0.5 to 5 nM.
`CC(C)Oc1ccc(-c2nc(-c3cccc4c3CC[C@H]4NCC(=O)NCCO)no2)cc1C#N` [Compound 135] was tested, and the EC50 was 0.05 to 0.5 nM.
`CC(C)Oc1ccc(-c2nc(-c3cccc4c3CC[C@@H]4NS(=O)(=O)CCN3CCOCC3)no2)cc1C#N` [Compound 177] was tested, and the EC50 was 0.5 to 5 nM.
`CC(C)Oc1ccc(-c2nc(-c3cccc4c3CCC4NC[C@H](C)O)no2)cc1C#N` (mixture of isomers) [Compound 43] gave an EC50 of 0.05 to 0.5 nM.
For `CC(=O)Nc1ccc(S(=O)(=O)NC2CCc3c(-c4noc(-c5ccc(OC(C)C)c(C#N)c5)n4)cccc32)cc1` (stereo in doubt) [Compound 82], the EC50 was over 5 nM.
`CC(C)Oc1ccc(-c2nc(-c3cccc4c3CC[C@H]4NS(=O)(=O)CCN3CCCC3)no2)cc1C#N` [Compound 170] was tested, and the EC50 was 0.5 to 5 nM.
`CC(C)Oc1ccc(-c2nc(-c3cccc4c3CC[C@@H]4NC(=O)N3CCC[C@H](O)C3)no2)cc1C#N` [Compound 216] showed an EC50 of 0.05 to 0.5 nM.
`CC(C)Oc1ccc(-c2nc(-c3cccc4c3CC[C@H]4N[C@H](C)CO)no2)cc1C#N` [Compound 56, 5-(3-((R)-1-(((R)-1-hydroxypropan-2-yl)amino)-2,3-dihydro-1H-inden-4-yl)-1,2,4-oxadiazol-5-yl)-2-isopropoxybenzonitrile] showed an EC50 of 0.05 to 0.5 nM.
`N#Cc1cccc(-c2nc(-c3cccc4c3CC[C@H]4N)no2)c1` [Compound 92, (R)-3-(3-(1-amino-2,3-dihydro-1H-inden-4-yl)-1,2,4-oxadiazol-5-yl)benzonitrile] showed an EC50 of over 5 nM.
`CC(C)Oc1ccc(-c2nc(-c3cccc4c3CC[C@H]4N[C@@H](C)CO)no2)cc1C#N` [Compound 54, 5-(3-((R)-1-(((S)-1-hydroxypropan-2-yl)amino)-2,3-dihydro-1H-inden-4-yl)-1,2,4-oxadiazol-5-yl)-2-isopropoxybenzonitrile] showed an EC50 of 0.05 to 0.5 nM.
Molecule `CCOc1ccc(-c2nc(-c3cccc4c3CC[C@H]4O)no2)cc1C(F)(F)F` [Compound 9] has an EC50 of 0.5 to 5 nM.
Molecule `N#Cc1cc(-c2nc(-c3cccc4c3CCC4NCCO)no2)ccc1O` (racemic) [Compound 102, 2-hydroxy-5-(3-(1-((2-hydroxyethyl)amino)-2,3-dihydro-1H-inden-4-yl)-1,2,4-oxadiazol-5-yl)benzonitrile] has an EC50 of over 5 nM.
`CC(C)Oc1ccc(-c2nc(-c3cccc4c3CC[C@H]4NC(=O)OCCO)no2)cc1C#N` [Compound 227] showed an EC50 of 0.05 to 0.5 nM.
For `COC(=O)N[C@H]1CCc2c(-c3noc(-c4ccc(OC(C)C)c(C#N)c4)n3)cccc21` [Compound 150], the EC50 was 0.05 to 0.5 nM.
`CC(=O)N(CCO)[C@@H]1CCc2c(-c3noc(-c4ccc(OC(C)C)c(C#N)c4)n3)cccc21` [Compound 113] gave an EC50 of 0.5 to 5 nM.
`COC(=O)CCCN[C@H]1CCc2c(-c3noc(-c4ccc(OC(C)C)c(C#N)c4)n3)cccc21` [Compound 145] gave an EC50 of under 0.05 nM.
Work on `CC(C)Oc1ccc(-c2nc(-c3cccc4c3CC[C@H]4NC(=O)N3CCOCC3)no2)cc1C#N` [Compound 211] yielded an EC50 of 0.05 to 0.5 nM.
For `CC(C)Oc1ccc(-c2nc(-c3cccc4c3CC[C@@H]4NC[C@@H](O)[C@H](O)[C@H](O)CO)no2)cc1C#N` [Compound 119, 2-isopropoxy-5-(3-((S)-1-(((2R,3S,4R)-2,3,4,5-tetrahydroxypentyl)amino)-2,3-dihydro-1H-inden-4-yl)-1,2,4-oxadiazol-5-yl)benzonitrile], the EC50 was 0.5 to 5 nM.
Molecule `CC(C)Oc1ccc(-c2nc(-c3cccc4c3CC[C@@H]4NC(=O)N3CC[C@@H](N(C)C)C3)no2)cc1C#N` [Compound 244] has an EC50 of 0.5 to 5 nM.
Molecule `CC(C)Oc1ccc(-c2nc(-c3cccc4c3CC[C@@H]4N3CC(O)C3)no2)cc1C#N` [Compound 84, (S)-5-(3-(1-(3-hydroxyazetidin-1-yl)-2,3-dihydro-1H-inden-4-yl)-1,2,4-oxadiazol-5-yl)-2-isopropoxybenzonitrile] has an EC50 of 0.05 to 0.5 nM.
Molecule `CC(C)Oc1ccc(-c2nc(-c3cccc4c3CC[C@H]4NS(N)(=O)=O)no2)cc1C#N` [Compound 248, (R)-N-(4-(5-(3 cyano-4-isopropoxyphenyl)-1,2,4-oxadiazol-3-yl)-2,3-dihydro-1H-inden-1-yl)sulfamide] has an EC50 of under 0.05 nM.
`COC(=O)CCCCNC1CCc2c(-c3noc(-c4ccc(OC(C)C)c(C#N)c4)n3)cccc21` (racemic) [Compound 147] showed an EC50 of under 0.05 nM.
Work on `CC(C)Oc1ccc(-c2nc(-c3cccc4c3CC[C@H]4NCCS(C)(=O)=O)no2)cc1C#N` [Compound 125, (R)-2-isopropoxy-5-(3-(1-((2-(methylsulfonyl)ethyl)amino)-2,3-dihydro-1H-inden-4-yl)-1,2,4-oxadiazol-5-yl)benzonitrile] yielded an EC50 of 0.05 to 0.5 nM.
